Laboratory results taken from a melting point compilation (Tetko et al.; mined from patent text by program, amines drawn as free bases though some values may be those of a salt).

`COc1ccccc1S(=O)(=O)NC(=O)c1ccc(C(=O)O)nc1` gave a melting point of 234 to 236 °C. With `CCN(C)C(=S)Nc1cc(Cl)c(OCCC[Si](C)(C)C)cc1C` the melting point was 71 to 72 °C. In the case of `CCOc1ccnc2[nH]cc(C(C)=O)c12`, the melting point is reported as over 210 °C. Compound `O=C(c1sc2c(ccc(=O)n2-c2ccccc2)c1Br)N1CC(O)C1` has a melting point of 199 °C. With `CC(=O)c1ccc(C(=O)OC(C)(C)C)cc1` the melting point was 57.5 to 58.8 °C. `COC(=O)Cc1c(OC)ccc2c1Oc1c(ccc(OC)c1C=NO)C2(C)C` gave a melting point of 234 to 236 °C. For `COC(=O)c1ccc2c(=O)[nH]c(=O)n(CCCCN3CCC(OC(c4ccccc4)c4ccccc4)CC3)c2c1`, the melting point was 192 to 194 °C. `CCOC(=O)c1cn(Cc2ccccc2)nc1NC(=O)N(C)C` gave a melting point of 125 to 126 °C. Compound `N#Cc1ccc(C#N)c(Sc2ccccc2)c1` has a melting point of 106 °C. In the case of `NNc1cc(OCC2CCCSC2)c(Cl)cc1F` (stereo not drawn), the melting point is reported as 83 to 87 °C. For `Nc1nc2cccnc2c2c1ncn2Cc1cc(-c2ccc(F)cc2)no1`, the melting point was 265 to 266 °C. Compound `COc1cc(OCc2ccccn2)ccc1/C=C/c1cc(/C=C/c2ccc3ccn(Cc4ccccc4)c3c2)n[nH]1` has a melting point of 89 to 93 °C. `CSc1nccc(-c2c(-c3ccc(F)cc3)ncn2C2CCNCC2)n1` gave a melting point of 182 to 183 °C. Work on `Cc1cc(C(O)C(Cl)(Cl)Cl)n(C)c1` (stereo not drawn) yielded a melting point of 55 to 57 °C. With `Nc1ncc2ncnc(Nc3ccc(F)c(Cl)c3)c2n1` the melting point was 300 to 301 °C. `COC(=O)Cn1c(Cc2ccccc2)ccc(NC(=O)CCCc2ccccc2)c1=O` showed a melting point of 93 to 95 °C. `CS(=O)c1nc(-c2ccccc2)c(-c2ccccc2)o1` (stereo not drawn) gave a melting point of 75 to 78 °C. `CCCc1coc2c(Cc3ccc(C(C)C)cc3)c(C)cc(C)c12` gave a melting point of 89 to 90 °C. `O=C1C=CC(=O)N1c1ccc(Oc2ccc3ccc(Oc4ccc(N5C(=O)C=CC5=O)cc4)cc3c2)cc1` showed a melting point of 162 to 164 °C. With `CN(C(=O)NCCc1ccc(F)cc1)c1cccc(-c2ccc(CCC(=O)O)cc2)c1` the melting point was 146 °C. `COc1ccc(OC)c2c1C[C@](C)(O)CC21SCCS1` gave a melting point of 152 to 153 °C. For `Cc1oc(-c2ccccc2)nc1COc1ccc(CON)cc1`, the melting point was 68 to 69 °C. Work on `COc1ccc(C2=NO[C@](CO)(CCO)C2)cc1OC1CCCC1` yielded a melting point of 108 to 109 °C. Compound `CC1=C(C(=O)Nc2cc(C(=O)OC(C)C)c(C)cc2F)SCCO1` has a melting point of 119 to 122 °C. Compound `Oc1cccc2c1CC[C@H]1[C@@H]2CCN1CCC1CCCCC1` has a melting point of 130 to 133 °C. For `COc1ccc2nc(CBr)ccc2c1`, the melting point was 103 °C. For `C[Si](C)(C)c1ccc(NC(=O)CCCC=C(F)F)cc1`, the melting point was 50 to 51 °C. For `COc1c(C)c(C)c(OC)c(CCCCO)c1C`, the melting point was 85.1 to 87.1 °C. Work on `CCCC(CCC)C(=O)N[C@H](C(=O)N[C@H]1CCO[C@@H]1OC)C(C)C` yielded a melting point of 150 to 156 °C. `O=C1Nc2cccc(I)c2C(=O)N2CCC[C@@H]12` gave a melting point of 212 to 215 °C. For `Clc1ccn2ncc(Br)c2n1`, the melting point was 173 to 174 °C. Work on `O=C1CCc2cc(OCc3ccccc3)ccc21` yielded a melting point of 105 to 106 °C. In the case of `O=Cc1ccc(OCCN2C(=O)COc3ccccc32)cc1`, the melting point is reported as 75 to 78 °C. In the case of `O=[N+]([O-])c1cccc2c(Cl)c(Cl)cnc12`, the melting point is reported as 123 °C. `CC(=O)c1cc2c(Cl)cc(F)c(-n3c(=O)cc(C(F)(F)F)n(C)c3=O)c2o1` gave a melting point of 193 to 194 °C. Work on `CN(C)C=Nc1ccc(-c2ccc(Cl)cc2)cn1` yielded a melting point of 125 °C. `C=CCN(CC=C)c1nc(Cl)nc2c(SC)ncnc12` gave a melting point of 83 to 84 °C. `Cc1cc(=O)n(C)c2cc(OCCCN3CCC(NC(=O)c4ccccc4)CC3)ccc12` gave a melting point of 193 to 195 °C. For `CC(C(=O)O)c1ccc2c(c1)oc1ccc(Cl)cc12` (single isomer, unassigned; (+)), the melting point was 155 to 157 °C. For `N#CSc1nc(Cl)ncc1F`, the melting point was 103 to 104 °C. Work on `CC(C)(C)c1ccc(C=NOCc2ccc(CC(=O)O)cc2)cc1` yielded a melting point of 93.3 to 96.2 °C. Work on `COC(=O)C(=O)Nc1ccc(-c2ccccc2S(=O)(=O)NC(C)(C)C)cc1` yielded a melting point of 132 °C. Compound `NC(=O)c1nc(-c2ccccc2)[nH]c1N` has a melting point of 300 °C.
